Article PMC7180728, “Novel Anthraquinone Compounds Inhibit Colon Cancer Cell Proliferation via the Reactive Oxygen Species/JNK Pathway” (Molecules, 2020)
Converted amounts (≈) assume the structure as drawn.

Experiments:
[1] = system: HCT116; assay: MTT cell proliferation assay, HCT116; assay type: cell-based, human; settings: Homo sapiens, HCT-116, HCT116 colon cancer, 48 h
Description: (§1) The effects of the synthesized amide anthraquinone derivatives on the proliferative activity of eight human cancerous cell lines (EC9706, MCF-7, SGC-7901, HepG2, QBC939, HeLa, HCT116 and SW480) in addition to two normal human cell lines (colorectal FHC and liver HL7702) were evaluated using the standard MTT assay.
(§2) The human esophageal cancer cell line EC9706 was obtained from Cancer Hospital and Institute by Prof. Ming Rong Wang, Chinese Academy Medical of Sciences. The human colorectal carcinoma cell lines HCT116 and SW480, hepatoma cell line HepG2, cervical carcinoma cell line HeLa, breast cancer cell line MCF-7, gastric cancer cell line SGC-7901, cholangiocarcinoma cell line QBC939, normal fetal colon cell line FHC and liver cell line HL-7702 were obtained from the Cell Bank of the Shanghai Chinese Academy of Sciences. All cells were cultured in RPMI 1640 medium containing 100 U/mL penicillin and streptomycin and 10% fetal bovine serum and maintained at 37°C under a 5% CO2 atmosphere.
(§3) We analyzed the inhibitory effects of eight anthraquinone-amino acid derivatives on the proliferation of eight tumor cell lines and two normal cell lines in vitro using MTT assays. Cells were added to a 96-well plate with (5,000 cells per well in 100 µL RPMI-1640 medium). Cells were treated with different concentrations (10–100 μg/mL) of 8a–8h for 48 h and then incubated with 20 μL MTT (5 mg/mL) for another 4 h at 37°C. DMSO (150 μL) was then added to each well to dissolve the formazan crystals. The absorbance of each well was read at 490 nm on a microtiter plate ELISA reader. The mean values were obtained from a minimum of three parallel experiments. IC50 values were calculated.

[2] = system: intracellular ROS in HCT116 cells; assay: Detection of ROS by DCFH-DA, flow cytometry; assay type: cell-based, human; settings: compared to DMSO-treated control
Description: Intracellular ROS are key factors in the activation of many signaling pathways, involved in a variety of biological functions including apoptosis and necrosis. High levels of ROS are capable of inducing tumor cell apoptosis. We evaluated the ability of the compounds to induce ROS by flow cytometric analysis of the fluorescent probe DCFH-DA. […] Next, we investigated ROS production before and after induction with 8a and NAC (N-acetyl-L-cysteine).
Cells were added to a 6-well plate (1 × 10^4/well) and incubated for 24 h to allow adherence. Set 0.1% DMSO as the control group, 8a as the treatment group, NAC as the treatment group, 8a + NAC as the treatment group. Among them, in the 8a + NAC treatment group, 8a was added after 5 mM NAC treatment for 1 h. Cells that had been treated for 24 h were collected. The cells were then washed three times with PBS and incubated with 10 μM DCFH-DA for 30 min in the dark. ROS levels were analyzed by flow cytometry.

[3] = system: HL-7702; assay: MTT cell proliferation assay, normal liver cells HL-7702; assay type: cell-based; settings: L02, HL-7702 normal human hepatocyte, 48 h
Description: as §1, §2, §3

[4] = system: HCT116 cells; assay: MTT cell viability with or without zVAD-FMK; assay type: cell-based, human; settings: Homo sapiens, HCT-116, 8a 20 μg/mL alone, 24 h
Excerpt: Caspases represent a key molecular group in the regulation of apoptosis. In caspases, there is an upstream and downstream relationship between the initiator of apoptosis and executioner. Caspase 3 is one of the key executers of apoptosis, as it is either partially or totally responsible for the proteolytic cleavage of many key proteins. For example, when caspase 9 is activated, it activates caspase 3, which ultimately triggers cell apoptosis. After detecting the expression of the corresponding Bcl-2 family proteins after 8a treatment by western blotting, we went on to detect the expression levels of PARP, caspase 9, cleaved caspase 9, caspase 3, and cleaved caspase 3 proteins. […] After 24 h of treatment with zVAD-FMK, cell viability is 93%.
Figure 7 Effect of 8a on apoptosis-related protein expression. […] PARP, caspase 3, cleaved caspase 3, caspase 9, cleaved caspase 9, Bcl-2, phosphorylated Bcl-2, Bcl-XL, phosphorylated Bcl-xL and Bax were detected by western blot analysis; β-actin was used as a loading control in each lane. Representative data of three independent experiments are shown; (C) and (D) Grayscale analysis of the relative expression of apoptosis-related proteins detected by Western blotting. […] (E) Cells were exposed to 8a (20 μg/mL) and/or zVAD-FMK ([…]) for 24 h, and cell viability was measured by MTT assay. […]

[5] = system: SW480; assay: MTT cell proliferation assay, SW480; assay type: cell-based; settings: Homo sapiens, SW480 colon cancer, 48 h
Description: as §1, §2, §3

[6] = system: HCT116 cells; assay: Annexin V/PI apoptosis assay by flow cytometry; assay type: cell-based, human; settings: 24 h, control 0.06%
Description: Natural anthraquinones, such as rubiadin, physcion, emodin and soranjidiol, have been reported to induce apoptosis in tumor cells. Therefore, after detecting the effect of 8a on tumor cell proliferation, we investigated correlation between the anticancer activity of compound 8a and apoptosis. The effects of compound 8a treatment on HCT116 cell apoptosis were detected by flow cytometry following Annexin V/PI staining.
HCT116 cells were added to a 6-well plate (5 × 10^6/well). After attachment, the cells were treated with 8a for 24 h. Then, the cells were collected and centrifuged (10,000 g × 5 min). Cells were washed once with 1 mL of PBS. Cells were suspended in 500 μL binding buffer (containing 5 μL Annexin V-FITC and 1 μL propidium iodide [PI]) and incubated for 30 min in the dark. Apoptosis cells were detected by flow cytometry (FACSCalibur, BD, The United States).

[7] = system: FHC; assay: MTT cell proliferation assay, normal colorectal cells FHC; assay type: cell-based; settings: FHC normal human colorectal mucosa, 48 h
Description: as §1, §2, §3

IC50 [1]: 17.8 ± 0.03 mg/L (≈ 43.4 µM)
IC50 [5]: 31.09 ± 0.1 mg/L (≈ 75.8 µM)
SMILES: CC(C)CC(NC(=O)c1ccc2c(c1[N+](=O)[O-])C(=O)c1ccccc1C2=O)C(=O)O (stereo not drawn) [Compound 8a, N-[(9,10-dihydro-1-nitro-9,10-dioxo-2-anthracenyl)carbonyl-leucine]]
ROS levels (in words) [2]: increase ROS levels in a dose-dependent manner
IC50 [3]: > 1000 mg/L
viability at 20 µg/mL [4]: 38%
rate of apoptosis ([6]; 10 μg/mL): 11.24%
rate of apoptosis ([6]; 20 μg/mL): 18.97%
rate of apoptosis ([6]; 40 μg/mL): 26.94%
IC50 [7]: > 1000 mg/L
